Read-outs that look alike come from different tables or passages of the source.
Assays:
[1] = target: T1, CDK7/Cyclin H/MNAT1 (Homo sapiens, UniProt P50613); assay: Enzymatic assay for CDK7 (LANCE Ultra kinase assay, FRET based); type: biochemical; details: for IC50: ATP at Km
T1 construct: purchased Invitrogen PR6749B
How it was run: (§1)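 Purified CDK–cyclin enzyme, ATP at Km; ULight peptide substrate; TR-FRET via Eu anti-phospho-Ab; inhibition scored.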

[2] = tested on: H460; assay: Cellular H460 viability assay (CellTiter-Glo, 72 hours); type: cell-based; details: Homo sapiens, NCI-H460; H460 cells
Method: All cell lines were routinely tested for mycoplasma.
To effect of the CDK7 inhibitor to inhibit the growth of target cancer cells, viability assay were conducted a 72 hour time period. Briefly, the candidate cell line was plated in 96 well plate at the following density of cells respectively. 1×10^4 cells/well for MV4-11, 5×10^3 for H460 and OVCAR-3, and 1×10^3 for A2780. […] DMSO solvent without compound served as a control and final DMSO concentration lest than 0.1%. After 72 hours of incubation at 37° C., 5% CO2 incubator, cells were analyzed for the viability using the CellTiter-Glo Luminescent Cell Viability Assay (Promega, Cat #G7570). All viability assays were performed in duplicate and Luminescence was read using an Envision (Perkin Elmer, USA). Data was analyzed using XLfit software.

[3] = target: T2, CDK2/Cyclin A (Homo sapiens, UniProt P24941); assay: Enzymatic assay for CDK2 (LANCE Ultra kinase assay, FRET based); type: biochemical; details: ATP at Km
T2 construct: purchased Invitrogen PV6290
How it was run: (§2)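 TR-FRET kinase assay at ATP Km with ULight-MBP peptide (68 nM) and Eu-anti-phospho-MBP antibody; CDK2/Cyclin A at […], CDK5/p25 at […]. 8-dose 4-fold compound dilutions; 60 min kinase reaction at 23° C., EDTA stop, 60 min detection, read at 615/665 nm.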

[4] = target: T3, CDK5/p25 (Homo sapiens, UniProt Q00535); assay: Enzymatic assay for CDK5 (LANCE Ultra kinase assay, FRET based); type: biochemical; details: ATP at Km
T3 construct: purchased Invitrogen PR8543B
How it was run: as §2

[5] = target: T4, CDK1/Cyclin B (Homo sapiens, UniProt P06493); assay: Enzymatic assay for CDK1 (LANCE Ultra kinase assay, FRET based); type: biochemical
T4 construct: purchased Invitrogen PR4768C
How it was run: as §1

[6] = tested on: MV4-11; assay: Cellular MV4-11 viability assay (CellTiter-Glo, 72 hours); type: cell-based; details: Homo sapiens; MV4-11 cells
How it was run: (§3)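 RPMI-1640/10% FBS; plate cells (MV4-11 1×10^4, OVCAR-3 5×10^3, A2780 1×10^3 per well); 24 h later add compound 0.0015–10 uM; 72 h, 37° C; CellTiter-Glo luminescence, duplicate wells.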

[7] = tested on: A2780; assay: A2780 viability assay (CellTiter-Glo, 72 hours); type: cell-based; details: Homo sapiens; A2780 cells
How it was run: as §3

[8] = tested on: OVCAR-3; assay: OVCAR-3 viability assay (CellTiter-Glo, 72 hours); type: cell-based; details: Homo sapiens; OVCAR-3 cells
How it was run: as §3

[9] = ATP at Km, read-out: CDK1 enzymatic activity IC50

T4 sequence (P06493 whole entry): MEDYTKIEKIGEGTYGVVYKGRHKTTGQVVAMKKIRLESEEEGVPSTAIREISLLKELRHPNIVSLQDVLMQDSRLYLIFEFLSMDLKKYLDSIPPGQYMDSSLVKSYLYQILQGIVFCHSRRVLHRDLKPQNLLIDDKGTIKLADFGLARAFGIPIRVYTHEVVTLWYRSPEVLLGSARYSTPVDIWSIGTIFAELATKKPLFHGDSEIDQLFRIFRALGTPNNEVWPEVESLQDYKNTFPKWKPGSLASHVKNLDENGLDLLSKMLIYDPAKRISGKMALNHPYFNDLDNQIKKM
T4 sequence (P14635 whole entry partner): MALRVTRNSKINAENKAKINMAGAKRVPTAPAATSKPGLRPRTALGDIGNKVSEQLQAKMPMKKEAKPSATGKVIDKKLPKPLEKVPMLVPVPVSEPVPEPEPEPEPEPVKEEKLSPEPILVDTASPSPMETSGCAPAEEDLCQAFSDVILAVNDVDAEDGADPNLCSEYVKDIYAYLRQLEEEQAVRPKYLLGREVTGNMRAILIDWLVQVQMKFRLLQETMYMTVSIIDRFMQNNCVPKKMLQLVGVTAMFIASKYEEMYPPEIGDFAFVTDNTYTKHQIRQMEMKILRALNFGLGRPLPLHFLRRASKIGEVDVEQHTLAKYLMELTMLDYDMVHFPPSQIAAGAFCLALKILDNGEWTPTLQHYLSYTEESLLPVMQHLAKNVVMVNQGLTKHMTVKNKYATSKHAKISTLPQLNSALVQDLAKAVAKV
T1 sequence (P50613 whole entry): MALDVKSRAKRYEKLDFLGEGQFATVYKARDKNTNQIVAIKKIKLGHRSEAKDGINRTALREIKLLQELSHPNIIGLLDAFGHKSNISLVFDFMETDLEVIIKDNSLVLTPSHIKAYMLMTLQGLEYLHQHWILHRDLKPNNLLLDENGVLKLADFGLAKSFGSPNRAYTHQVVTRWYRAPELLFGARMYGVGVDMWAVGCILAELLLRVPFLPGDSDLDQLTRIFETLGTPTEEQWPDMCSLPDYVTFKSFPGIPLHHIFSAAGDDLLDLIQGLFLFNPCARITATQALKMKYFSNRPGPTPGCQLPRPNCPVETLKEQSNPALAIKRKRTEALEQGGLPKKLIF
T1 sequence (P51946 whole entry partner): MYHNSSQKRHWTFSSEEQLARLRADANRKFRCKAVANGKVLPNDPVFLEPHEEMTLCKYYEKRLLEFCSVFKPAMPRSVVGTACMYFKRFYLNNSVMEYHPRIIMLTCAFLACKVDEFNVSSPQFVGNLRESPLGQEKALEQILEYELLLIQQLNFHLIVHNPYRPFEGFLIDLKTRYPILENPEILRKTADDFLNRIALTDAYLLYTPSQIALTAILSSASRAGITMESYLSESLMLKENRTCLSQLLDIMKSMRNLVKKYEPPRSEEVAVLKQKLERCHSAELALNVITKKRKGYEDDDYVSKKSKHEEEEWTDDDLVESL
T1 sequence (P51948 whole entry partner): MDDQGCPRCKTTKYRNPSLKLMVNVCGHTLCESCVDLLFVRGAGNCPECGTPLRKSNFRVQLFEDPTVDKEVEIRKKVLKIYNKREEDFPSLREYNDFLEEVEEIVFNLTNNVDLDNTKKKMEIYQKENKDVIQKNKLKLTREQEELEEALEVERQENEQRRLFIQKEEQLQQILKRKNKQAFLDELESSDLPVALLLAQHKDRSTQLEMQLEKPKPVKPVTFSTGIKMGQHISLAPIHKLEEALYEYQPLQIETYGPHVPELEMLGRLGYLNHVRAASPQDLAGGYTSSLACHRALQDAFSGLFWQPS
T3 sequence (Q00535 whole entry): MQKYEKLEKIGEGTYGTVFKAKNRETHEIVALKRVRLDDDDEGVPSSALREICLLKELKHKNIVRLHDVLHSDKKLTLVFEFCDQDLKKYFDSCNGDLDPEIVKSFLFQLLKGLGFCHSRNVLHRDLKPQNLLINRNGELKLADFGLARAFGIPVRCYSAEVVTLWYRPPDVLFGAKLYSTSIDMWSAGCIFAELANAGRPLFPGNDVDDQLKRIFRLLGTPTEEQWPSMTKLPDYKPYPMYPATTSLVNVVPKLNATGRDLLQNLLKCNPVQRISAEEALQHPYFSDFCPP
T3 sequence (Q15078 99-307 partner limits assumed): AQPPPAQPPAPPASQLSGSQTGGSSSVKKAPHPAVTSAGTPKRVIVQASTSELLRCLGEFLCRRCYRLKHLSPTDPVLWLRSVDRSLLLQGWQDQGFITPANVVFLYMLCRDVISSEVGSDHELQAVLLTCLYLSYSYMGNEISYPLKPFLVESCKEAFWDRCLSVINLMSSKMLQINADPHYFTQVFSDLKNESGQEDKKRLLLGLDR

IC50 [1] [nM]	CDK1/CDK7: Selectivity of CDK7 inhibition over CDK1 inhibition [1]	CDK2/CDK7: Selectivity of CDK7 inhibition over CDK2 inhibition [1]	CDK5/CDK7: Selectivity of CDK7 inhibition over CDK5 inhibition [1]	IC50 [2] [nM]	IC50 [3] [nM]	IC50 [4] [nM]	IC50 [5, 9] [nM]	IC50 [6] [nM]	IC50 [7] [nM]	IC50 [8] [nM]	Structure (SMILES)	IC50 [5] [nM]
< 100	A (A indicates [fold] > 500)	B (B indicates 50 < [fold] ≤ 500)	B (B indicates 50 < [fold] ≤ 500)	< 1000	100 to 1000	100 to 1000	> 1000				CC(C)c1cnn2c(NCc3cccc(OC4CCCN(C(=O)/C=C/CN(C)C)CC4)c3)nc(N3CCC(N)CC3)nc12 (racemic) [Compound 18]	
< 100	A (A indicates [fold] > 500)	B (B indicates 50 < [fold] ≤ 500)	B (B indicates 50 < [fold] ≤ 500)	1000 to 10000	> 1000	100 to 1000	> 1000				CC(C)c1cnn2c(NCc3cccc(NC4CCCN(C(=O)/C=C/CN(C)C)CC4)c3)nc(N3CCC(N)CC3)nc12 (racemic) [Compound 21]	
< 100	A (A indicates [fold] > 500)	B (B indicates 50 < [fold] ≤ 500)	C (C indicates [fold] ≤ 50)	1000 to 10000	100 to 1000	100 to 1000	> 1000				CC(C)c1cnn2c(NCc3cccc(NC(=O)C4CCCN(C(=O)/C=C/CN(C)C)CC4)c3)nc(N3CCC(N)CC3)nc12 (racemic) [Compound 22]	
< 100	B (B indicates 50 < [fold] ≤ 500)	B (B indicates 50 < [fold] ≤ 500)	C (C indicates [fold] ≤ 50)	< 1000	100 to 1000	100 to 1000	100 to 1000				CC(C)c1cnn2c(NCc3cccc(Oc4cccc(NC(=O)/C=C/CN(C)C)c4)c3)nc(N3CCC(N)CC3)nc12 [Compound 2]	
< 100	B (B indicates 50 < [fold] ≤ 500)	B (B indicates 50 < [fold] ≤ 500)	C (C indicates [fold] ≤ 50)	< 1000	100 to 1000	100 to 1000	> 1000				C=CC(=O)Nc1cccc(Oc2cccc(CNc3nc(N4CCC(N)CC4)nc4c(C(C)C)cnn34)c2)c1 [Compound 5]	
< 100	A (A indicates [fold] > 500)	A (A indicates [fold] > 500)	C (C indicates [fold] ≤ 50)	< 1000	> 1000	100 to 1000	> 1000				CC(C)c1cnn2c(NCc3ccccc3OC3CCN(C(=O)/C=C/CN(C)C)CC3)nc(N3CCC(N)CC3)nc12 [Compound 6]	
< 100	A (A indicates [fold] > 500)	A (A indicates [fold] > 500)	B (B indicates 50 < [fold] ≤ 500)	< 1000	> 1000	> 1000	> 1000				C=CC(=O)Nc1cccc(Oc2ccccc2CNc2nc(N3CCC(N)CC3)nc3c(C(C)C)cnn23)c1 [Compound 7]	
< 100	A (A indicates [fold] > 500)	B (B indicates 50 < [fold] ≤ 500)	B (B indicates 50 < [fold] ≤ 500)	< 1000	> 1000	100 to 1000	> 1000				CC(C)c1cnn2c(NCc3ccccc3NC(=O)c3cccc(NC(=O)/C=C/CN(C)C)c3)nc(N3CCC(N)CC3)nc12 [Compound 8]	
				1000 to 10000							CC(C)c1cnn2c(NCc3ccccc3-c3nccc4c(NC(=O)/C=C/CN(C)C)cccc34)nc(N3CCC(N)CC3)nc12 [Compound 9]	
< 100	B (B indicates 50 < [fold] ≤ 500)	B (B indicates 50 < [fold] ≤ 500)	C (C indicates [fold] ≤ 50)	< 1000	100 to 1000	100 to 1000	> 1000				CC(C)c1cnn2c(NCc3ccccc3Oc3ccc(NC(=O)/C=C/CN(C)C)cc3)nc(N3CCC(N)CC3)nc12 [Compound 10]	
< 100	A (A indicates [fold] > 500)	B (B indicates 50 < [fold] ≤ 500)	C (C indicates [fold] ≤ 50)	< 1000	> 1000	100 to 1000	> 1000				CC(C)c1cnn2c(NCc3cccc4ccc(NC(=O)/C=C/CN(C)C)nc34)nc(N3CCC(N)CC3)nc12 [Compound 12]	
				< 1000							CC(C)c1cnn2c(NCc3cccc(Oc4ccc(F)c(NC(=O)/C=C/CN(C)C)c4)c3)nc(N3CCC(N)CC3)nc12 [Compound 13]	
< 100	A (A indicates [fold] > 500)	B (B indicates 50 < [fold] ≤ 500)	B (B indicates 50 < [fold] ≤ 500)	< 1000	> 1000	100 to 1000	> 1000				C=CC(=O)Nc1cccc(Oc2cccc(CNc3nc(N4CCC(N(C)C)CC4)nc4c(C(C)C)cnn34)c2)c1 [Compound 14]	
< 100	A (A indicates [fold] > 500)	B (B indicates 50 < [fold] ≤ 500)	B (B indicates 50 < [fold] ≤ 500)	< 1000	100 to 1000	100 to 1000	> 1000				CC(C)c1cnn2c(NCc3cccc(Oc4ccc(Cl)c(NC(=O)/C=C/CN(C)C)c4)c3)nc(N3CCC(N)CC3)nc12 [Compound 15]	
< 100	A (A indicates [fold] > 500)	A (A indicates [fold] > 500)	A (A indicates [fold] > 500)		> 1000	> 1000	> 1000	< 1000	1000 to 10000	1000 to 10000	C/C=C/C(=O)Nc1ccc2c(-c3ccccc3CNc3nc(NC[C@H]4CNC[C@@H]4O)nc4c(C(C)C)cnn34)nccc2c1 [Compound 77]	
< 100	A (A indicates [fold] > 500)	A (A indicates [fold] > 500)	B (B indicates 50 < [fold] ≤ 500)		> 1000	> 1000	> 1000	< 1000	< 1000	1000 to 10000	C=C(F)C(=O)Nc1cccc2cc(-c3cccc(C)c3CNc3nc(NC[C@H]4CCNC[C@@H]4O)nc4c(C(C)C)cnn34)[nH]c12 [Compound 78]	
< 100	A (A indicates [fold] > 500)	A (A indicates [fold] > 500)	A (A indicates [fold] > 500)		> 1000	> 1000	> 1000	< 1000	< 1000	< 1000	C=C(F)C(=O)Nc1ccc2c(-c3ccccc3CNc3nc(N4CCNCC4)nc4c(C(C)C)cnn34)nccc2c1 [Compound 79]	

Structure (SMILES)	IC50 [1] [nM]	CDK1/CDK7: Selectivity of CDK7 inhibition over CDK1 inhibition [1]	CDK2/CDK7: Selectivity of CDK7 inhibition over CDK2 inhibition [1]	CDK5/CDK7: Selectivity of CDK7 inhibition over CDK5 inhibition [1]	IC50 [2] [nM]	IC50 [3] [nM]	IC50 [4] [nM]	IC50 [5, 9] [nM]	IC50 [6] [nM]	IC50 [7] [nM]	IC50 [8] [nM]	IC50 [5] [nM]
CC(C)c1cnn2c(NCc3cccc(NC(=O)c4cccc(NC(=O)/C=C/CN(C)C)c4)c3)nc(N3CCC(N)CC3)nc12 [Compound 1]	< 100	B (B indicates 50 < [fold] ≤ 500)	B (B indicates 50 < [fold] ≤ 500)	C (C indicates [fold] ≤ 50)	1000 to 10000	100 to 1000	100 to 1000					> 1000

Source: patent US12606561B2, “Substituted pyrazolo[1,5-a][1,3,5]triazines as CDK inhibitors” (QURIENT CO., LTD., priority 2018, dated 2026)
